From PMC9433906, “Evaluation of the biotechnological potential of peptide Cupiennin 1a and analogs” (Frontiers in Microbiology, 2022)
In brackets after ≈: the same amount, converted by molar mass. Where a SMILES comes first, the peptide text is derived from it.

Assays:
[1] = test system: K. pneumoniae (ATCC 13883); format: cell-based, Klebsiella pneumoniae; conditions: K. pneumoniae (ATCC13883); 5×10^5 CFU.ml^−1, Mueller-Hinton Broth, 37°C, 24 h, OD 595 nm, biological triplicates
Procedure: (§1) Susceptibility tests were performed using clinical isolates of Klebsiella pneumoniae carbapenemase (KPC 1410503) and methicillin-resistant S. aureus (MRSA 3730592). Tests were also performed with ATCC (American Type Culture Collection) isolates of K. pneumoniae (ATCC 13883) and S. aureus (ATCC 25923).
(§2) Two multidrug-resistant clinical isolates and two ATCC isolates were chosen to perform microbial susceptibility testing as models for studies with bacteria susceptible to antimicrobials found in the Gram-Positive and Gram-Negative groups of bacteria.
(§3) The broth microdilution method was performed according to the Clinical and Laboratory Standards Institute (CLSI) M07-A10 protocol to determine the Minimum Inhibitory Concentration (MIC; [Clinical Laboratory Standards Institute, 2015]). The assay was performed on 96-well microplates (TPP, United States), containing 5×10^5 CFU.ml^−1 of each tested bacterium per well and different peptide micromolar concentrations (Table 1) in a final volume of 100 μl of Mueller-Hinton Broth (MH). Negative control was represented by bacteria incubated in MH medium, while positive control was represented by culture incubated in MH medium with Amikacin. Plates were kept under agitation at 37°C in a BioTek spectrophotometer (PowerWaveTM HT Microplate Reader) with optical density (OD) readings at 595 nm every 30 min for 24 h. Inhibition results were analyzed using GraphPad Prism 8 software by comparing the OD from negative control wells (100%) to those containing peptides. All tests were performed in biological triplicates.

[2] = test system: C. parapsilosis (ATCC22019); assay: Broth microdilution MIC (CLSI M27-A3 with modifications); format: cell-based, Candida parapsilosis; conditions: 2.5 × 10^3 CFU.ml^−1, Sabouraud medium, 24 h at 30°C, absorbance 595 nm
Procedure: The broth microdilution method was performed according to the Clinical and Laboratory Standards Institute Guideline M27-A3 with modifications to determine the Minimum Inhibitory Concentration (MIC; [Clinical Laboratory Standards Institute, 2008]).
Initially, the fungus C. parapsilosis (ATCC22019) was grown in a Petri dish containing Sabouraud Dextrose Agar medium (Dextrose 40 g/L; Peptic digestion of animal tissue 5.0 g.L^−1; and Agar 15 g.L^−1) for 48 h. Subsequently, a pre-inoculum was performed from a yeast colony that was placed in 10 ml of liquid Sabouraud medium and incubated for 16 h at 28°C, with a constant rotation of 200 rpm. After the incubation period, 2.5 × 10^3 CFU.ml^−1 of fungus per well was incubated with different peptide micromolar concentrations (Table 1) to assess the MIC for each peptide.
Fungal cells incubated with Sabouraud medium were used as negative control, while positive control was represented by fungal cells incubated in Sabouraud medium and amphotericin B (10 μM). Subsequently, plates were incubated for 24 h at 30°C. After this period, the absorbance was read (595 nm) in a BioTek spectrophotometer (PowerWaveTM HT Microplate Reader), and data of antifungal activity with percentage of inhibition of peptides were plotted in GraphPad Prism 8 Software.

[3] = test system: methicillin-resistant S. aureus (MRSA 3730592); format: cell-based, Staphylococcus aureus; conditions: Methicillin-Resistant S. aureus—MRSA clinical isolate 3730592; 5×10^5 CFU.ml^−1, Mueller-Hinton Broth, 37°C, 24 h, OD 595 nm, biological triplicates
Procedure: as §1, §2, §3

S. aureus (ATCC 25923) = format: cell-based, Staphylococcus aureus; conditions: S. aureus (ATCC25923); 5×10^5 CFU.ml^−1, Mueller-Hinton Broth, 37°C, 24 h, OD 595 nm, biological triplicates
Procedure: as §1, §2, §3

RAW 264.7 cells = assay: MTT cytotoxicity test against RAW 264.7; format: cell-based, mice; conditions: 24 h
Procedure: The cell line RAW 264.7 was obtained from the Rio de Janeiro Cell Bank (CR108). These cells are macrophages derived from induced tumors in male BALB/c mice infected with Abelson’s murine leukemia virus ([Raschke et al., 1978]). RAW264.7 cells were grown in DMEM medium (Dulbecco’s Modified Eagle’s medium, composed of CaCl2 (anhydrous) 200 mg.ml^−1, Fe(NO3).9H2O 0.1 mg.ml^−1, KCL 400 mg.ml^−1, MgSO4 (anhydrous) 97.67 mg.ml^−1, NaCL 6.400 mg.ml^−1, NaH2PO4.H2O 125 mg.ml^−1) supplemented with 10% (v/v) of bovine fetal serum, 0.5% (v/v) of DMEM amino acid solution, 0.05% (w/v) gentamicin, 0.5% (w/v) of L-glutamine, and 0.5% (w/v) of penicillin/streptomycin (1,000 U.ml^−1) in an incubator containing 5% CO2, at 37°C, and 95% humidity ([Raschke et al., 1978]; [Nguyen et al., 2017]).
RAW 264.7 cells were seeded in 96-well plates, at a concentration of 10^4 cells/well, and incubated for 24 h. Each peptide was subsequently added at different micromolar concentrations (Table 1). Positive control was performed by cells in culture medium and negative control, as cell culture in lysis solution (10 mM Tris, 1 mM EDTA, and 0.1% Triton X-100, pH 7.4).
Cell viability analyses were performed in technical and biological replicates, and readings were obtained after 24 h of contact with peptides. At the end of the incubation period, MTT (Sigma-Aldrich, United States) was used to assess the ability of living cells to reduce salt 3-[4,5-dimethylthiazole-2-yl]-2,5-diphenyltetrazolium bromide for formazan production. Plates were read at 570 ηm ([Mosmann, 1983]) and results were expressed in the percentage of living cells. The results were analyzed using GraphPad Prism 8 software where a One-Way ANOVA statistical test was followed by Bonferroni’s multiple comparisons test.

[4] = test system: Klebsiella pneumoniae carbapenemase (KPC 1410503); format: cell-based; conditions: K. pneumoniae carbapenemase—KPC clinical isolate 1410503; 5×10^5 CFU.ml^−1, Mueller-Hinton Broth, 37°C, 24 h, OD 595 nm, biological triplicates; NE = MIC value not found
Procedure: as §1, §2, §3

[5] = test system: Spodoptera frugiperda (SF21) cells; assay: In vitro test against insect cells (MTT); format: cell-based; conditions: lowest concentration tested (1 μM), 24 h
Procedure: To evaluate the ability of the peptides to cause lysis and morphological changes in insect cells ([Dutra, 2019]; Patent: BR 102022 006138 6) as a first screening of the insecticidal activity of the peptides, in this work, the Spodoptera IPLB-SF-21AE _LVI-Cenargen cell line ([Vaughn et al., 1977]) was used and different concentrations of the peptides were added to the culture medium.
Cells were maintained at 27°C in TNMFH medium (Grace’s insect medium supplemented with lactalbumin hydrolyzate and yeastolate), supplemented with 10% (v/v) fetal bovine serum (Sigma-Aldrich; [Castro et al., 2006]).
Cell cultivation was carried out in 10 ml culture bottles, model K11-1050 25cm^2, with 5 ml of culture medium per bottle. For the assays, the SF21 cells were grown in TNMFH medium, added 10% (v/v) of bovine fetal serum, and distributed in plates of 96 wells at the concentration of 2×10^4 cells per well, after counting was performed in the Neubauer chamber. Cell suspension was distributed in a volume of 100 μl per well. Peptides were diluted in TNMFH medium and 100 μl of medium with peptide was added, obtaining concentrations of 10, 5, and 1 μM, reaching the volume of 200 μl at the final concentrations of reaction per well. Cells were placed in incubation at 27°C, for 24 h.
After 24 h, the cells were analyzed for their modifications, morphological alterations, turbidity of the medium, formation of clumps, and/or lysis in the presence of peptides, by observation under optical microscopy (Nikon Eclipse TS100) with 20× and 40× magnification. Characteristics that could represent cell death or cell dysfunction caused by the peptides were observed compared to control cells. Cells were evaluated by cell viability using the MTT test 3-[4,5-dimethylthiazole-2-yl]-2,5-diphenyltetrazolium bromide 0.5 mg.ml^−1 (Sigma-Aldrich). To perform the test, the cell culture medium was discarded, and we added 100 μl of new medium. Ten μl of MTT was added to each well and incubated for 4 h, with the plates protected from light. After 4 h, we added 100 μl of DMSO to each well to dissolve the formazan crystals, and the reading in the microplate reader ([Riss et al., 2016]) was then performed. The results were analyzed using GraphPad Prism 8 software, where a One-Way ANOVA statistical test was followed by Bonferroni’s multiple comparisons test.

| SMILES | Minimum inhibitory concentration (MIC) [1] [µM] | Minimum inhibitory concentration (MIC) [2] [µM] | Minimum inhibitory concentration (MIC) [3] [µM] | Minimum inhibitory concentration (MIC) (S. aureus (ATCC 25923)) [µM] | viable cells (RAW264.7) in the MIC found for MRSA, S. aureus ATCC25923 and C. parapsilosis ATCC22019 (RAW 264.7 cells; at the MIC of R1a for these strains (15.81 μM in Table 3)) [%] | toxicity on RAW264.7 macrophages in the concentration range of 33.77 μM (in words) (RAW 264.7 cells; concentration range of 33.77 μM) | Minimum inhibitory concentration (MIC) [4] [µM] | viable cells (RAW264.7) (RAW 264.7 cells; 33.77 μM) [%] | toxicity to RAW264.7 cells at the MIC concentration (in words) (RAW 264.7 cells; R1b: MIC found for KPC1410503, R3b: MIC at high concentrations against all tested microorganisms) | cell viability (SF21) [5] | cell viability (RAW264.7) in the MIC found for MRSA3730592, S. aureus ATCC25923, K. pneumoniae ATCC13883 (RAW 264.7 cells; at the MIC of R2b for these strains (17.15 μM in Table 3)) | toxicity against RAW264.7 cells (in words) (RAW 264.7 cells; tested concentrations of Table 1 (128–16 μg.ml^−1)) |
| --- | --- | --- | --- | --- | --- | --- | --- | --- | --- | --- | --- | --- |
| CC(C)C[C@H](NC(=O)[C@H](C)NC(=O)CNC(=O)[C@H](Cc1ccccc1)NC(=O)CN)C(=O)N[C@@H](Cc1ccccc1)C(=O)N[C@@H](CCCCN)C(=O)N[C@@H](Cc1ccccc1)C(=O)N[C@@H](CC(C)C)C(=O)N[C@@H](C)C(=O)N[C@@H](CCCCN)C(=O)N[C@@H](CCCCN)C(=O)N[C@H](C(=O)N[C@@H](C)C(=O)N[C@@H](CCCCN)C(=O)N[C@H](C(=O)N[C@H](C(=O)N[C@@H](C)C(=O)N[C@@H](CCCCN)C(N)=O)C(C)C)[C@@H](C)O)C(C)C [Peptide R1a] (H-GFGALFKFLAKKVAKTVAK-NH2) | 31.63 (≈ 64 µg/mL) | 15.81 (≈ 32 µg/mL) | 15.81 (≈ 32 µg/mL) | 15.81 (≈ 32 µg/mL) | 63 | high toxicity | – | – | – | – | – | – |
| CC(C)C[C@H](NC(=O)[C@H](C)NC(=O)CNC(=O)[C@H](Cc1ccccc1)NC(=O)CN)C(=O)N[C@@H](Cc1ccccc1)C(=O)N[C@@H](CCCCN)C(=O)N[C@@H](Cc1ccccc1)C(=O)N[C@@H](CC(C)C)C(=O)N[C@@H](C)C(=O)N[C@@H](CCCCN)C(=O)N[C@@H](CCCCN)C(=O)N[C@H](C(=O)N[C@@H](C)C(=O)N[C@@H](CCCCN)C(=O)N[C@H](C(=O)N[C@H](C(=O)N[C@@H](C)C(N)=O)C(C)C)[C@@H](C)O)C(C)C [Peptide R1b] (H-GFGALFKFLAKKVAKTVA-NH2) | 33.77 (≈ 64 µg/mL) | 16.88 (≈ 32 µg/mL) | 33.77 (≈ 64 µg/mL) | 33.77 (≈ 64 µg/mL) | – | – | 67.54 (≈ 128 µg/mL) | 58 | high toxicity | – | – | – |
| CC(C)C[C@H](NC(=O)[C@H](C)NC(=O)CNC(=O)[C@H](Cc1ccccc1)NC(=O)CN)C(=O)N[C@@H](Cc1ccccc1)C(=O)N[C@@H](CCCCN)C(=O)N[C@@H](Cc1ccccc1)C(=O)N[C@@H](CC(C)C)C(=O)N[C@@H](C)C(=O)N[C@@H](CCCCN)C(=O)N[C@@H](CCCCN)C(=O)N[C@H](C(=O)N[C@@H](C)C(=O)N[C@@H](CCCCN)C(=O)N[C@@H](C)C(=O)N[C@H](C(=O)N[C@@H](C)C(N)=O)C(C)C)C(C)C [Peptide R2b] (H-GFGALFKFLAKKVAKAVA-NH2) | 17.15 (≈ 32 µg/mL) | 34.31 (≈ 64 µg/mL) | 17.15 (≈ 32 µg/mL) | 17.15 (≈ 32 µg/mL) | – | – | 34.31 (≈ 64 µg/mL) | – | – | below 50% | above 50% | high toxicity |
